Consider 3 molecules from patent publication EP0190464A2, “Novel anti-cancer drugs” (YEDA RESEARCH AND DEVELOPMENT COMPANY LIMITED, priority 1984, dated 1986).

Series [1] deals with 38C-13 tumor cells. The series can be described thus: Inhibition of DNA synthesis ([3H]-methylthymidine incorporation). It counts as cell-based, murine. The conditions noted are these: Fig. 2. On the procedure: Inhibition of DNA synthesis by the free platinum compounds of their complexes was determined as follows. Tumor cells (2-5 x 10^4/0.1 ml) suspended in their suitable grwoth media were dispersed into wells of microtiter plates. The Platinum compounds or complexes were added to the cells in […] aliquots. The plates were incubated for 21 hr at 37 °C in a humidified atmosphere of 5% CO2 in air. At that time 10 µl containing 0.5 µci of [^3H]-methylthymidine were added to each well and the plates were incubated for 3 hr as above. The reaction was terminated using a Titerteck cell harvester.
Pt complexes used in the in vitro and in vivo experiments were prepared under conditions of maximal binding, that is, 98-100% binding of the free drugs. In vivo experiments were performed with cis-Pt and cis-aq complexes. […] Cis-Pt and cis-aq complexes of dex-NH2 were tested and found to be active in vitro against 5 murine tumors (EL-4, 38-C13, L1210, RDM and F-9) and 2 human derived tumors (Hela and Osteosarcoma). […] This activity was lost, however upon exhaustive dialysis.

For series [2], the system named is tumors. The experiment in a line: Activity against tumors in vivo (general statement). The conditions noted are these: uncomplexed salt.
Series [3] can be described thus: Toxicity in tumor-free mice, single I.V. injection. Format: in vivo. The conditions noted are these: free drugs, ICR mice. On the procedure:
Preliminary toxicity experiments with CM-dex and ?ex-NH2 complexes were performed to compare the toxicity of the free drugs and the complexes in tumor-free ICR mice. Pairs of mice were given a single I.V. injection of each of the drugs or drug complexes at a wide concentration range. Death of mice due to toxicity occurred between 1 to 7 days after injection. The results (Table 8) indicate the maximal non-toxic (none of the mice died) and the minimal toxic dose (death of both mice). […] The CM-dex T-40 of both drugs were also toxic although somewhat less than the free drugs, with no significant difference between the cis-Pt and cis-aq complexes. […] The dex-NH2 were also considerably less toxic than the free drugs.

Series [4] has as its system F-9 murine embryonal carcinoma cells. The experiment in a line: In vivo suppression of F-9 embryonal carcinoma, I.P. tumor and I.P. treatment. Also noted: species or system Balb/c mice; effective dose (range): unit not given here. The conditions noted are these: for survival (average): free drug at optimal doses, one day after tumor. On the procedure:
In vivo experiments were performed with F-9 murine embryonal carcinoma cells which were maintained in-vitro in DMEM supplemented with 10% fetal calf serum, glutamine and antibiotics, in gelatine (0.1%) coated culture flasks. In-vivo experiments were performed in female Balb/c mice at the age of 2-3 months.
In experiment I, 300,000 tumor cells were inoculated intraperitoneally (I.P.) into Balb/c mice.
The in vivo chemotherapeutic effect of the different complexes in comparison with free drugs was evaluated by the suppression of F9 embryonal carcinoma in Balb/c mice. […]

Where [5] appears, read: Exp. I: 300,000 tumor cells I.P., 50 µg, out of 5 TBM.
The mark [6] stands for this setting: Exp. II: 600,000 cells I.P., treatment 2 days after tumor, 60 µg.

pIC50: −log10 of the molar value.

With `[Cl][Pt-2]([Cl])([Cl])[Cl].[K+].[K+]` [K2PtCl4], the “fold less inhibitory than cis-Pt and cis-aq” value in series [1] was found to be 20 fold. In addition, the pIC50 in series [1] (read-out: 50% inhibition of DNA synthesis, 21 hr at 37°C with drug, then 3 hr [3H]-methylthymidine pulse) is 4.70. For the same molecule, the “activity against tumors in vivo” value in series [2] was “essentially inactive”.

For `N.N.O.O.O=[N+]([O-])[O-].O=[N+]([O-])[O-].[Pt+2]` [cis-aq, diaquodiammine Platinum (II)-nitrate], the “toxicity compared with cis-Pt” value in series [3] is “more toxic than cis-Pt”. In addition, in series [4] (setting [5]), the “died of drug toxicity” value came to 1, the “died of the tumor” value turned out to be 3 and the survived was 1. Also, in series [4] (setting [6]), the “non-protective against the tumor” value is on record as 2/5 and the toxic is 3/5. The “effective dose (range)” value in series [4] (F9 tumor, single dose, Table 5) is given as 40. Also, in series [4] (F9 tumor, Table 7), the “survival (average)” value is reported as 60-80%. Besides, the “toxicity at a slightly higher than optimal dose” value in series [4] (F9 tumor, free drug, Table 7) was “at least partially toxic”.

Take `N.N.[Cl][Pt][Cl]` [cis-Pt, Cis-dichlorodiammine Platinum (II)]: the “died of the tumor” value in series [4] (Exp. I: 300,000 tumor cells I.P., 100 ug I.P. 1 day after tumor inoculation) was 1/5. Also, the “time of death of the tumor after receiving the tumor cells” value in series [4] (Exp. I: 300,000 tumor cells I.P., 100 ug I.P. day 1, the 1/5 mouse that died of tumor) is on record as 54 days. In addition, the “protective against the tumor” value in series [4] (setting [6]) was 4/5. The “survival (average)” value in series [4] (F9 tumor, Table 7) was 60-80%.
